In US20230173064A1, “DETOXIFIED LIPOPOLYSACCHARIDES (LPS), NATURALLY NON-TOXIC LPS, AND USES THEREOF” (priority 2020, published 2023):
Read-outs that look alike come from different tables or passages of the source.

Tests used:
[1] = Dynamic Light Scattering (DLS) aggregate size analysis in water and PBS suspensions; format: physicochemical; conditions: for average particle size: 0.2 mg/mL, DLS at 25° C., average of triplicate
Protocol: Determination of aggregates sizes of LPS B2 0.0, LPS B2 0.1, LPS B2 1.1 and of synthetic GLA (PHAD®, from Avanti® Polar Lipids, Inc.) in aqueous and PBS suspensions was determined by Dynamic Light Scattering (DLS) using the Malvern Instruments Zetasizer Nano S90 with a scattering angle Θ=90°, incident laser wavelength λ=633 nm and temperature at 25° C.
Samples for measurements were prepared as follows: 200 μg of dry samples in 4 mL glass vials were suspended in 1 mL of water or PBS. LONZA LAL Reagent water and Gibco PBS pH 7.4 (without CaCl2 or MgCl2) were used. The solvents were added progressively (250 μL plus 250 μL plus 500 μL). Three homogenization cycles were applied after each addition of a solvent, consisting in a 10-second sonication in a Fisher Scientific FB 15050 ultrasonic bath and 5 seconds vigorous vortex agitation.
800 μL of each suspension were transferred to a disposable Eppendorf polystyrene semi-micro cuvette and DLS measurements were performed three times.
LPS SM1 V1 was diluted in PBS pH 7.5 at 50 nmol/mL, and filtered through a 200-nm filter to remove large debris and aggregates. No nucleic acid contaminants and 2-4 μg/mL of protein contaminants were measured in the sample.

[2] = test system: rabbits; assay: Rabbit Pyrogen Test (RPT), Ph. Eur. 5.1.10; format: in vivo; conditions: intravenous, sum of temperature rises of 3 rabbits not above 1.15° C.
Protocol: Standardized Rabbit Pyrogen Test (RPT) were conducted according to European Pharmacopeia (Ph. Eur. 5.1.10). Product tested includes the naturally-occurring LPS B2 0.0 and LPS W1 0.0 and modified LPS B2 0.1, LPS B2 1.1 and LPS B2 1.2, as well as a non-GMP equivalent of the GLA from Merck (Avanti Polar Lipids).
Briefly, groups of three rabbits, weighing 2.5 to 3 kg received one intravenous injection of the tested product in 1 mL/kg of body weight.
For each candidate, several dose ranges were tested from 0.1 to 1000 ng/kg. For each animal, the baseline rectal temperature was recorded. After 30 minutes, the rabbits were inoculated in the ear vein. Temperatures were recorded every 6.5 minutes for 3 hours. The rising temperature of the rabbit body temperature is that the highest body temperature measure within the 3 hours, minus the normal body temperature.
Several doses of each candidates were tested to define their MNPD corresponding to the highest dose of a given product that can be administered in rabbits without inducing febrile reaction.
The pyrogenic activity of modified LPS B2 1.2 and LPS B2 1.3 was evaluated in vivo using the rabbit pyrogen test (RPT), as described in section 5.1.10 of the European Pharmacopeia. Both LPS were administered at the same dose of 450 ng/kg. Two experiments were performed for each modified LPS, with 3 rabbits/experiment (A1, A2 and A3).

[3] = test system: human B-lymphoma tumor model (RL cells) in CB17-SCID mice; assay: Tumor rejection assay, therapeutic setting, human B-lymphoma RL cells engrafted in CB17-SCID mice; format: in vivo, mouse; conditions: for growth of established RL tumor cells: once a week for 3 weeks, LPS 0.5 mg/kg i.v., GLA 0.5 mg/kg, rituximab 30 mg/kg i.p., vs non-treated mice
Protocol: The therapeutic efficacy of native (LPS B2 0.0 and LPS W1 0.0) and modified (LPS B2 0.1 and LPS B2 1.1) LPS, alone or in combination with rituximab, was analyzed in vivo against a human B-lymphoma tumor model (RL cells) using tumor rejection assays with a therapeutic setting in mice.
Cohort of CB17-SCID mice were engrafted subcutaneously in the abdominal right flank with 5×10^6 human B-lymphoma cells (RL cells). When the tumor volume had reached 100 mm^3 (at day 20), mice were randomized (n=6 mice/group), and the first treatment was administered.
(§1) Mice were treated once a week for 3 weeks (at days 20, 27 and 34) with LPS B2 0.0, LPS B2 0.1, LPS B2 1.1 or LPS W1 0.0, used alone or in combination with rituximab (Genentech), an anti-human CD20 mAb.
(§2) Groups of mice treated with GLA (Merck/Immune Design Corp.) administered either intravenously or intraperitoneally at 0.5 mg/kg, alone or in combination with rituximab, were included for comparison.
(§3) LPS B2 0.0, LPS B2 0.1, LPS B2 1.1 or LPS W1 0.0 were administered intravenously at a dose of 0.5 mg/kg. Rituximab was administered intraperitoneally at a dose of 30 mg/kg.
Tumor-bearing mice injected with PBS (control) or rituximab alone were used as controls.
The tumor volume was measured twice a week (length x width) with a caliper. The tumor volume was determined using the formula: […]

[4] = test system: CB17-SCID mice; assay: Tolerance of intravenous injection in tumor-bearing CB17-SCID mice; format: in vivo, mouse; conditions: 0.5 mg/kg intravenously
Protocol: as §1, §2, §3

[5] = test system: human PBMC (CryoBlood); conditions: literature / vendor values; cited from earlier work
[6] = test system: Osa tumor cells in Sprague-Dawley (SD) rats; assay: Tumor rejection assay, orthotopic rat model of osteosarcoma (Osa); format: in vivo
Protocol: The therapeutic efficacy of the modified LPS B2 1.3 was analyzed in vivo against an orthotopic rat model of osteosarcoma (Osa) using tumor rejection assays with a therapeutic setting.
Sprague-Dawley (SD) rats were engrafted with Osa tumor cells in a paratibial position (left posterior tibia) after a periosteal abrasion. When tumors reached an average tumor volume of 150 mm^3, rats (n=3 to 8/group) were randomized into LPS B2 1.3, Doxorubicin (Doxo), or PBS (Control) groups.
LPS B2 1.3 was administered intravenously into the tail vein, twice a week for 2 weeks at 0.25 mg/kg.
Doxorubicin was administered intraperitoneally twice a week for 2 weeks at 1 mg/kg.
Tumor growth and survival were monitored twice a week. Tumor volumes V were assessed according to the following formula: […]
with L the longest and C the shortest tumor diameter.

[7] = test system: rabbits; conditions: literature values; cited from earlier work

Compound: CCCCCCCCCCCCCC(=O)O[C@H](CCCCCCCCCCC)CC(=O)O[C@@H]1[C@@H](NC(=O)C[C@H](CCCCCCCCCCC)OC(=O)CCCCCCCCCCCCC)[C@H](OC[C@H]2O[C@H](O)[C@H](NC(=O)C[C@H](O)CCCCCCCCCCC)[C@@H](OC(=O)C[C@H](O)CCCCCCCCCCC)[C@@H]2O)O[C@H](CO)[C@H]1OP(=O)(O)O [GLA, glucopyranosyl lipid A]
- average particle size ([1]; in PBS): about 529 nm
- DLS profile ([1]; in water): monodisperse
- size of nano-particles / aggregates ([1]; in water or PBS): > 500 nm
- solubility / dispersibility ([1]; in water or PBS, without dispersing reagents or special treatment): precipitates
- appearance of the final 0.2 mg/mL suspensions ([1]; in water or in PBS): slightly opaque but homogeneous
- average particle size ([1]; in water): about 544 nm
- MNPD (maximum non-pyrogenic dose) [2]: 0.034 µg/kg
- complete tumor regression ([3]; GLA 0.5 mg/kg injected intraperitoneally in combination with rituximab): 50%
- growth of established RL tumor cells ([3]; single agent): did not show any impairment
- altered aspect and behavior (toxicity) after intravenous administration [4]: had to be euthanized
- MAT (pyrogenicity as described in the literature) [5]: 15700^2 EEU/μg

Compound: rituximab: an anti-CD20 monoclonal antibody (Genentech)
- complete tumor regression ([3]; single agent, D54 post-tumor challenge): 17%
- growth of established RL tumor cells ([3]; single agent): significantly impair the growth

Compound: COc1cccc2c1C(=O)c1c(O)c3c(c(O)c1C2=O)C[C@@](O)(C(=O)CO)C[C@@H]3O[C@H]1C[C@H](N)[C@H](O)[C@H](C)O1 [doxorubicin]
- growth of established Osa tumor cells ([6]; LPS B2 1.3 0.25 mg/kg i.v., doxorubicin 1 mg/kg i.p., twice a week for 2 weeks, vs PBS (and doxorubicin)): No significant difference in tumor growth
- animals alive (survival) ([6]; day 31): 40%
- complete tumor regressions (complete responses) ([6]; day 31): no tumor regressions

Compound: CCCCCCCCCCC[C@H](CC(=O)N[C@H]1[C@H](OC[C@H](NC(=O)C[C@@H](CCCCCCCCCCC)OCCCCCCCCCC)C(=O)O)O[C@H](CO)[C@@H](OP(=O)(O)O)[C@@H]1OC(=O)C[C@@H](CCCCCCCCCCC)OCCCCCCCCCC)OCCCCCCCCCC [GSK1795-091]
- MNPD (maximum non-pyrogenic dose) [7]: 0.0025 µg/kg
